Reference: patent US20030175319A1, “Method for controlling termite” (SUMITOMO CHEMICAL COMPANY, LIMITED, priority 2002, published 2003)

Tests used:
[1] = tested on: Formosan subterranean termites (Coptotermes formosanus); assay: Test Example 1: mortality of termites released in a plastic cup with the sheet formulation; type: in vivo; conditions: for Mortality (%): 2.5 g sheet formulation, 100 termites
Experimental: The sheet formulation obtained in Formulation example 1 or 2 (2.5 g) was put in a plastic cup (8.5 cm in diameter). The plastic cup was set inside a large cup having wet cotton for supplying moisture and 100 Formosan subterranean termites (Coptotermes formosanus) were released in the plastic cup. After 2, 4 and 8 weeks, the mortality of the termites was observed. Further, the same sheet formulation as Formulation example 2 except that hexaflumuron was used in place of bistrifluron was tested for reference.

[2] = tested on: Formosan subterranean termites; assay: Test Example 2: field test, sheet formulation buried at tree stumps damaged by termites; type: in vivo, Coptotermes formosanus; conditions: conclusion from Table 2
Text: In a place termites inhabit, two tree stumps (A and B) damaged by Formosan subterranean termites were found. The distance between A and B is about 500 m. Two wooden blocks (φ75 mm×78 mm) were buried near A and B, respectively.
After all the wooden blocks were damaged by the termites, each of about 60 g of the sheet formulation obtained in Formulation example 2 was buried in place of the damaged wooden blocks at A. On the other hand, the same sheet formulation as Formulation example 2 except that hexaflumuron was used in place of bistrifluron was used at B. Further, two of the sheet formulation were added at A and B respectively, after two weeks. […]
Soldiers are usually in their colony. At emergency, soldiers are observed.

SMILES | Mortality (%) ([1]; after 2 weeks) | Mortality (%) ([1]; after 4 weeks) | Mortality (%) ([1]; after 8 weeks) | rapidity of efficacy compared with hexaflumuron ([1]; conclusion from Table 1) | rapidity of efficacy compared with hexaflumuron [2]
O=C(NC(=O)c1c(F)cccc1F)Nc1cc(Cl)c(OC(F)(F)C(F)F)c(Cl)c1 [Hexaflumuron, 1-[3,5-dichloro-4-(1,1,2,2-tetrafluoroethoxy)phenyl]-3-(2,6-difluorobenzoyl)urea] | 5 | 34 | 100 |  | 
O=C(NC(=O)c1c(F)cccc1F)Nc1cc(C(F)(F)F)cc(C(F)(F)F)c1Cl [bistrifluron, N-[2-chloro-3,5-bis(trifluoromethyl)phenyl]-N′-(2,6-difluorobenzoyl)urea] |  |  |  | more rapid efficacy than hexaflumuron | more rapid efficacy than hexaflumuron
